{"source": "patent US8101783B1", "about": "“Titanium-maltol compound and method of synthesizing the same” (priority 2007, dated 2012)", "key": {"[1]": {"assay": "Stability of the crystals removed from the mother liquor", "assay_type": "physicochemical", "details": "when removed from the mother liquor"}, "[2]": {"assay": "Solubility of the Ti(IV)-maltol complexes in water and in CH2Cl2", "assay_type": "physicochemical", "procedure": "Alternatively, more than two (and preferably three) equivalents of maltol could be used to provide an excess and ensure completion of the reaction.\nHowever, at pH of 8.4 the complex becomes soluble in water but promotes tetramerization of the [Ti(maltolato)2(OH)2] species. In fact, this can be monitored by NMR spectroscopy. A pure sample of cis-[Ti(maltolato)2(OH)2] was dissolved in D2O at pH of 8.4. […] These two species belong most likely to cis-[Ti(maltolato)2(OH)2] and [Ti4(maltolato)8(μ-O)4]. After 24 hours the tetrameric species continues increasing while the monomeric species decreases. Upon standing for two weeks, at pH of 8.4, this solution yields orange crystals suitable for X-ray diffraction. Evidently, Ti(maltolato)2(OH)2 further reacts to form a tetranuclear titanium complex, which crystallizes as a hydrate, [Ti4(maltolato)8(μ-O)4].18H2O, Single crystal X-ray structure determination was pursued on this high pH species, which solid state structure is illustrated in FIG. 2. The crystal data and structure refinement details as well as the bonding parameters are summarized below in Table 1 and Table 2, respectively.\nElectrochemical behavior of Ti(maltolato)2(OH)2 was investigated using cyclic voltammetry (cv). Ti(maltolato)2(OH)2 in CH2Cl2/[NBu4] […] If this potential is compared with previously reported Ti(IV)-maltol and Ti(IV)-guaiacol complexes, it resembles to reduction potentials of monomeric species such as Ti(maltolato)2(OEt)2 (−1.0 V) and Ti(maltolato)2(Cl)2 (−1.55 V) and not to the tetrameric species [Ti4(guaiacolato)8(μ-O)4] (−1.94 V)."}, "[3]": {"details": "physiological pH; cited from earlier work"}}, "data": [{"compound": "Cc1occc(=O)c1[O-].Cc1occc(=O)c1[O-].Cc1occc(=O)c1[O-].Cc1occc(=O)c1[O-].Cc1occc(=O)c1[O-].Cc1occc(=O)c1[O-].Cc1occc(=O)c1[O-].Cc1occc(=O)c1[O-].O.O.O.O.O.O.O.O.O.O.O.O.O.O.O.O.O.O.[O-2].[O-2].[O-2].[O-2].[Ti+4].[Ti+4].[Ti+4].[Ti+4]", "note": "[[Ti4(maltolato)8(μ-O)4].18H2O]", "values": [{"measurement": "stability of crystals", "setting": "[1]", "result": "unstable and undergoes dehydration"}]}, {"compound": "Cc1occc(=O)c1[O-].Cc1occc(=O)c1[O-].Cc1occc(=O)c1[O-].Cc1occc(=O)c1[O-].Cc1occc(=O)c1[O-].Cc1occc(=O)c1[O-].Cc1occc(=O)c1[O-].Cc1occc(=O)c1[O-].[O-2].[O-2].[O-2].[O-2].[Ti+4].[Ti+4].[Ti+4].[Ti+4]", "note": "[[Ti4(maltolato)8(μ-O)4]]", "values": [{"measurement": "solubility in CH2Cl2", "setting": "[2]; CH2Cl2, cyclic voltammetry attempt", "result": "lack of solubility"}]}, {"compound": "CC(=O)[CH-]C(=O)c1ccccc1.CC(=O)[CH-]C(=O)c1ccccc1.CC[O-].CC[O-].[Ti+4]", "note": "[budotitane]", "values": [{"measurement": "hydrolytic stability", "setting": "[3]", "result": "low hydrolytic stability"}]}, {"compound": "dihydroxobis(maltolato)titanium(IV) [Ti(maltolato)2(OH)2]", "values": [{"measurement": "solubility in water", "setting": "[2]; low pH (5.4)", "result": "slightly water soluble"}, {"measurement": "solubility in water", "setting": "[2]; pH of 8.4, promotes tetramerization", "result": "soluble"}]}, {"compound": "titanocene dichloride", "values": [{"measurement": "hydrolytic stability", "setting": "[3]", "result": "low hydrolytic stability"}]}]}
